Values of other authors, collected in patent US20230348531A1, “ISOLATION AND PURIFICATION OF BACTERIOCIN PRODUCED BY LACTOBACILLUS SAKEI AND ANTIBACTERIAL USE THEREOF AND LACTIC ACID BACTERIA USED” (Zhejiang Gongshang University, priority 2022, published 2023).

Tested on: gram-negative bacteria such as Escherichia coli
Details: background statement

Substance: Nisin
- inhibitory effect on gram-negative bacteria: no inhibitory effect
